We go through 17 compounds from patent publication US20230293518A1 (Edgewise Therapeutics, Inc., priority 2020, published 2023).

Assay [1] relates to embryos from zebrafish model of DMD. To be noted: Li and Arner, PLoSONE, 2015; cited from earlier work.
Assay [2] addresses skeletal myofibrils (myosin ATPase). In words: Skeletal Myofibril ATPase Assay. It is filed as biochemical. In short, it runs like this:
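IC50 came from four-parameter logistic fits, bottom constrained ≥0, of (Max−Min) A340 values normalised to 1% DMSO controls. Readings were taken kinetically over 45 min at 1.5-2 min intervals, with ADP from myofibril myosin ATPase coupled through PK-LDH to NADH oxidation. Buffer was pCa (PIPES/CaCl2/EGTA), pH 7.0.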

The structures appear in SMILES notation. pIC50: −log10 of the molar value.

Consider `Cc1ccc(S(=O)(=O)NCc2ccccc2)cc1` [BTS, N-benzyl-p-tolyl-sulfonamide], for which, in assay [1], the “protection of muscles from pathological muscle derangement” value is on record as “protect muscles from pathological muscle derangement”.
`Cc1ccc(-c2ccc(=O)n(CC(=O)NC3CCCCCC3)n2)cc1` [IIIc-4, N-cycloheptyl-2-(6-oxo-3-(p-tolyl)pyridazin-1(6H)-yl)acetamide] showed a pIC50 in assay [2] (Table 4C) of 4.00 to 5.00.
Take `O=C(Cn1nc(-c2ccc(Cl)cc2)ccc1=O)Nc1cccc2[nH]ccc12` [IIIc-19, 2-(3-(4-chlorophenyl)-6-oxopyridazin-1(6H)-yl)-N-(1H-indol-4-yl)acetamide]: the pIC50 in assay [2] (Table 4C) is more than 5.00.
For `CCNC(=O)Cn1nc(-c2ccc(N3CC4CC(C3)O4)nc2)ccc1=O` [Compound I-43, 2-(3-(6-(6-oxa-3-azabicyclo[3.1.1]heptan-3-yl)pyridin-3-yl)-6-oxopyridazin-1(6H)-yl)-N-ethylacetamide], the negative logarithm of the IC50 (pIC50) in assay [2] (Table 4A) was 4.00 to 5.00.
The compound `CCc1ccc(-c2ccc(=O)n(CC(=O)NCc3ccccc3Cl)n2)cc1` [IIIa-18, N-(2-chlorobenzyl)-2-(3-(4-ethylphenyl)-6-oxopyridazin-1(6H)-yl)acetamide] gave a pIC50 in assay [2] (Table 4C) of more than 5.00.
On the same count and under the same terms, with `CN(Cc1ccccc1)C(=O)Cn1nc(-c2ccc(Cl)cc2)ccc1=O` [IIIc-32, N-benzyl-2-(3-(4-chlorophenyl)-6-oxopyridazin-1(6H)-yl)-N-methylacetamide] the figure was 4.00 to 5.00; with `O=C(Cn1nc(-c2ccccc2)ccc1=O)Nc1ccc2c(c1)OCCO2` [IIIc-64], less than 4.00.
On the same count and under the same terms, to `COc1ccc(-c2ccc(=O)n(CC(=O)NCC3CCOCC3)n2)cc1` [IIIa-29, 2-(3-(4-methoxyphenyl)-6-oxopyridazin-1(6H)-yl)-N-((tetrahydro-2H-pyran-4-yl)methyl) acetamide] belongs less than 4.00.
The same measure, in the same setting: with `COc1ccc(-c2ccc(=O)n(CC(=O)NC(C)C)n2)cc1` [IIIb-18, N-isopropyl-2-(3-(4-methoxyphenyl)-6-oxopyridazin-1(6H)-yl)acetamide] the figure was 4.00 to 5.00.
Take `CC(C)NC(=O)Cn1nc(-c2ccc(Br)cc2)ccc1=O` [IIIc-40, 2-(3-(4-bromophenyl)-6-oxopyridazin-1(6H)-yl)-N-isopropylacetamide]: the negative logarithm of the IC50 (pIC50) in assay [2] (Table 4C) was 4.00 to 5.00.
Take `COc1ccc(-c2ccc(=O)n(CC(=O)NCc3ccc(F)cc3)n2)c(F)c1` [IIIb-46, 2-(3-(2-fluoro-4-methoxyphenyl)-6-oxopyridazin-1(6H)-yl)-N-(4-fluorobenzyl)acetamide]: in assay [2] (Table 4C), the negative logarithm of the IC50 (pIC50) is less than 4.00.
Still for that read-out and setting: with `COc1ccc(-c2ccc(=O)n(CC(=O)NC(C)CCc3ccccc3)n2)cc1` (centres unmarked) [IIIb-30, 2-(3-(4-methoxyphenyl)-6-oxopyridazin-1(6H)-yl)-N-(4-phenylbutan-2-yl)acetamide] the figure was 4.00 to 5.00; with `COc1ccc(-c2ccc(=O)n(CC(=O)Nc3ccc(Cl)cc3Cl)n2)c(F)c1` [IIIb-35, N-(2,4-dichlorophenyl)-2-(3-(2-fluoro-4-methoxyphenyl)-6-oxopyridazin-1(6H)-yl)acetamide], 4.00 to 5.00.
In turn, `O=C(Cn1nc(-c2ccc(OC(F)F)nc2)ccc1=O)NC1(c2ccccc2)CCC1` [Compound I-68, 2-(3-(6-(difluoromethoxy)pyridin-3-yl)-6-oxopyridazin-1(6H)-yl)-N-(1-phenylcyclobutyl) acetamide] gave a pIC50 in assay [2] (Table 4A) of more than 5.00.
In assay [2] (Table 4C), `COc1ccc(-c2ccc(=O)n(CC(=O)NCc3cccc(Cl)c3)n2)cc1` [IIIa-8, N-(3-chlorobenzyl)-2-(3-(4-methoxyphenyl)-6-oxopyridazin-1(6H)-yl)acetamide] had a pIC50 of more than 5.00.
For `O=C(Cn1nc(-c2ccc(Cl)cc2)ccc1=O)Nc1ccccc1F` [IIIc-27, 2-(3-(4-chlorophenyl)-6-oxopyridazin-1(6H)-yl)-N-(2-fluorophenyl)acetamide], the pIC50 in assay [2] (Table 4C) was 4.00 to 5.00.
In assay [2] (Table 4B), `CCNC(=O)Cn1nc(-c2ccc(OC(F)F)cc2)c(C)cc1=O` [II-19, 2-(3-(4-(difluoromethoxy)phenyl)-4-methyl-6-oxopyridazin-1(6H)-yl)-N-ethylacetamide] had a pIC50 of 4.00 to 5.00.
